Experimental data from ChEMBL document CHEMBL4800728, “Data for DCP probe JNJ-54119936” (2021).
Activity calls are given as the source filed them. The rule behind the calls is not given here.

Experiments:
[1] = target: Tyrosine-protein kinase ZAP-70 (Homo sapiens) (UniProt P43403); experiment: ZAP_70 Invitrogen kinase panel; conditions: Compound concentration 10.0 uM
[2] = target: D(4) dopamine receptor (Homo sapiens) (UniProt P21917); conditions: Compound concentration 10.0 uM
[3] = target: Kappa-type opioid receptor (Homo sapiens) (UniProt P41145); conditions: Compound concentration 10.0 uM
[4] = target: Histamine H3 receptor (Homo sapiens) (UniProt Q9Y5N1); conditions: Compound concentration 10.0 uM
[5] = target: Delta-type opioid receptor (Homo sapiens) (UniProt P41143); conditions: Compound concentration 10.0 uM
[6] = target: Ribosomal protein S6 kinase alpha-2 (Homo sapiens) (UniProt Q15349); experiment: Rsk3 Invitrogen kinase panel; conditions: Compound concentration 10.0 uM
[7] = target: T1, Glucocorticoid receptor (Homo sapiens) (UniProt P04150); experiment: GR Indigo Bioscience nuclear receptor screen
T1 sequence (whole entry): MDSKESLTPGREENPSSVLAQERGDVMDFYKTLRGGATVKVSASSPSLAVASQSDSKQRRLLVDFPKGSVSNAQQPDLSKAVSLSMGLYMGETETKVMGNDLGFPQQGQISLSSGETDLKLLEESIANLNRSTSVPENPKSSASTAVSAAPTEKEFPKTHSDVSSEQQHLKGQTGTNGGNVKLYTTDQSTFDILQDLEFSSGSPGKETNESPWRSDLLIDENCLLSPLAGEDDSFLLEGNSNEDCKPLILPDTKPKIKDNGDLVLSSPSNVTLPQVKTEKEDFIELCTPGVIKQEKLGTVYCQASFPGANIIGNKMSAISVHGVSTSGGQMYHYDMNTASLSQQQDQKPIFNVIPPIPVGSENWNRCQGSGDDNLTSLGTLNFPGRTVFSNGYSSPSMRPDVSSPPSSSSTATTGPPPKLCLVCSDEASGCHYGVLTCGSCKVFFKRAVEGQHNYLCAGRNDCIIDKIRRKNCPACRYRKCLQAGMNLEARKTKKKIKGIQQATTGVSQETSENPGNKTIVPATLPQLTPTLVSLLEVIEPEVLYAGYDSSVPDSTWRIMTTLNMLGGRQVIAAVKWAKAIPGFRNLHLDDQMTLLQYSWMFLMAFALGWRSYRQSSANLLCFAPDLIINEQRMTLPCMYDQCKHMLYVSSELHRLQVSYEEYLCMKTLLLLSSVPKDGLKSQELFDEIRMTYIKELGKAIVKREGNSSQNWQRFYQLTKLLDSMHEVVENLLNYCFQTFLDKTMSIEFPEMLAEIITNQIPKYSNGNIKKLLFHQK

[8] = target: GABA-A receptor; anion channel (Homo sapiens) (UniProt P14867+P47870+P18507+P28472+P48169+Q99928+Q9UN88+P34903+O00591+O14764+Q8N1C3+P18505+P78334+P47869+P31644+Q16445); experiment: Cl- channel CEREP screen; format: protein-complex assay
[9] = target: Thyroid hormone receptor beta (Homo sapiens) (UniProt P10828); experiment: TRbeta Indigo Bioscience nuclear receptor screen; conditions: Compound concentration 0.3 uM
[10] = target: Sodium-dependent dopamine transporter (Homo sapiens) (UniProt Q01959); experiment: dopamine transporter (h) CEREP screen
[11] = target: Serine/threonine-protein kinase Chk1 (Homo sapiens) (UniProt O14757); experiment: CHK1 Invitrogen kinase panel; conditions: Compound concentration 10.0 uM
[12] = target: Activin receptor type-1B (Homo sapiens) (UniProt P36896); experiment: Alk4 Invitrogen kinase panel; conditions: Compound concentration 10.0 uM
[13] = target: Nuclear receptor ROR-gamma (Homo sapiens, UniProt P51449); experiment: Human whole blood assay; format: tissue-based; design: compound concentration 10 uM
[14] = target: Melanocortin receptor 4 (Homo sapiens) (UniProt P32245); experiment: MC4 (h) CEREP screen; conditions: Compound concentration 10.0 uM
[15] = target: Type-1 angiotensin II receptor (Homo sapiens) (UniProt P30556); experiment: AT1 (h) CEREP screen; conditions: Compound concentration 10.0 uM
[16] = target: Sigma intracellular receptor 2 (Homo sapiens, UniProt Q5BJF2); conditions: Compound concentration 10.0 uM
[17] = target: Sigma non-opioid intracellular receptor 1 (Homo sapiens, UniProt Q99720); experiment: GPCRScan assay: inhibition of Sigma 1; design: radioligand conc. used [nm] 4.0 – 5.0, parental cells HEKT
[18] = target: T2, Muscarinic acetylcholine receptor M1 (Homo sapiens) (UniProt P11229); conditions: Compound concentration 10.0 uM
T2 sequence (whole entry): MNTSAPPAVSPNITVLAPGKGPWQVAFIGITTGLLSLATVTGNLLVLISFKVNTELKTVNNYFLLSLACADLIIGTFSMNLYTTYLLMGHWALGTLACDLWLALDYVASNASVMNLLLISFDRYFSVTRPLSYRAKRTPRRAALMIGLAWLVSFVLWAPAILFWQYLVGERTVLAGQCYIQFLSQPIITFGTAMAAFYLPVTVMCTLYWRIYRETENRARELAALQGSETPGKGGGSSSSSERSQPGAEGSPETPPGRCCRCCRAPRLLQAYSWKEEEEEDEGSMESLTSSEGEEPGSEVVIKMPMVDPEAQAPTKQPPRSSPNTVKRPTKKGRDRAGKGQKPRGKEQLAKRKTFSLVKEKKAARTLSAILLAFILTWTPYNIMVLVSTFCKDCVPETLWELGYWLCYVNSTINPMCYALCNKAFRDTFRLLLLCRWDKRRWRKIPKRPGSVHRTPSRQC

[19] = target: T3, CAR (nuclear receptor subfamily 1 group I member 3) (Homo sapiens, UniProt Q14994); experiment: (§1) CAR In-house nuclear receptor screen; conditions: human; compound concentration 3 uM
T3 sequence (Q14994 whole entry): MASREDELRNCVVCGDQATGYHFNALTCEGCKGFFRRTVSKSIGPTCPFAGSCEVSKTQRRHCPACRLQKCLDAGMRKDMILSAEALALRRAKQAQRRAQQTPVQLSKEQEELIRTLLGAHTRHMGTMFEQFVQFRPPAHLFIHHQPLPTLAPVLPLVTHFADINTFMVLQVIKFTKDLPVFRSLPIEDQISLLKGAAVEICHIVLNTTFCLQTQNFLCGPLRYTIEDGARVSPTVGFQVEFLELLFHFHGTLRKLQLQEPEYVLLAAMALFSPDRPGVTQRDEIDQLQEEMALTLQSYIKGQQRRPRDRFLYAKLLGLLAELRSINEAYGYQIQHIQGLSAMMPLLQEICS

[20] = target: Nuclear receptor subfamily 1 group I member 3 (Homo sapiens, UniProt Q14994); experiment: as §1
[21] = target: Oxysterols receptor LXR-alpha (Homo sapiens, UniProt Q13133); experiment: LXRalpha In-house nuclear receptor screen
[22] = target: T2, Muscarinic acetylcholine receptor M1 (Homo sapiens); experiment: M1 (h) CEREP screen
[23] = target: Proto-oncogene tyrosine-protein kinase Src (Homo sapiens) (UniProt P12931); experiment: SRC Invitrogen kinase panel; conditions: Compound concentration 10.0 uM
[24] = target: Tyrosine-protein kinase JAK3 (Homo sapiens) (UniProt P52333); experiment: JAK3 Invitrogen kinase panel; conditions: Compound concentration 10.0 uM
Chain of Tyrosine-protein kinase JAK3 (Homo sapiens) (P52333 whole entry): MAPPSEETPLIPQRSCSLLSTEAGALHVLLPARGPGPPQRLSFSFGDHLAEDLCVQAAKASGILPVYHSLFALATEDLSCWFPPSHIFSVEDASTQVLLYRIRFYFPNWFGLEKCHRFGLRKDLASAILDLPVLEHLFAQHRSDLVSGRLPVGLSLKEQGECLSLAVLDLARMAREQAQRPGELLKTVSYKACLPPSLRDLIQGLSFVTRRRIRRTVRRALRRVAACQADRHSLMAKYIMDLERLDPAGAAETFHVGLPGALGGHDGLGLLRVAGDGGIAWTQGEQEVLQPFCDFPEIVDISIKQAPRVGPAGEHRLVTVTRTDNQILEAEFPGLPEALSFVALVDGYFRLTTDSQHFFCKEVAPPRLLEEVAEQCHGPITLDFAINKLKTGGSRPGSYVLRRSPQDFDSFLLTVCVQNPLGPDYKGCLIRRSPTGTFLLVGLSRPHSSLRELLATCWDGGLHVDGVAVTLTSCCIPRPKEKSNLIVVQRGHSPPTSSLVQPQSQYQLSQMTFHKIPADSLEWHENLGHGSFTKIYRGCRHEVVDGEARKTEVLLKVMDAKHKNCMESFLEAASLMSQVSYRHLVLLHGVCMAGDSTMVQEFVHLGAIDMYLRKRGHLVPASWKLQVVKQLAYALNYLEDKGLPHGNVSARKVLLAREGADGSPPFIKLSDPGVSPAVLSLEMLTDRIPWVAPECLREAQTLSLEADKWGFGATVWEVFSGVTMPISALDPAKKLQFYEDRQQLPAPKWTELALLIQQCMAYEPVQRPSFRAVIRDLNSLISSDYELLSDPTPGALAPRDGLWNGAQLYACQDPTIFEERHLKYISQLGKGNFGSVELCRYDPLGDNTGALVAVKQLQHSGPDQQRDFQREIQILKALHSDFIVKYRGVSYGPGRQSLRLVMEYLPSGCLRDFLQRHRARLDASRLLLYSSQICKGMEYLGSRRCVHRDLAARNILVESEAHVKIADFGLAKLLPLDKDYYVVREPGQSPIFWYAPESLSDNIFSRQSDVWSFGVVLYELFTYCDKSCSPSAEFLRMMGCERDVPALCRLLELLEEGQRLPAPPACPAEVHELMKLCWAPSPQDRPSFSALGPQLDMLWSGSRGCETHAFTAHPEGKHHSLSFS

Chain of Sigma non-opioid intracellular receptor 1 (Q99720 whole entry): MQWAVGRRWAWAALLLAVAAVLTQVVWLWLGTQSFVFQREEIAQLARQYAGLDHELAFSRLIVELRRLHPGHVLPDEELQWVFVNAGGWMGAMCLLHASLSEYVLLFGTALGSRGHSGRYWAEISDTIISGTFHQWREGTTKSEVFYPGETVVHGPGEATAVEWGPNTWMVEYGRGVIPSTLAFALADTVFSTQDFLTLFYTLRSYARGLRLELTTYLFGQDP
Chain of Sodium-dependent dopamine transporter (Homo sapiens) (Q01959 whole entry): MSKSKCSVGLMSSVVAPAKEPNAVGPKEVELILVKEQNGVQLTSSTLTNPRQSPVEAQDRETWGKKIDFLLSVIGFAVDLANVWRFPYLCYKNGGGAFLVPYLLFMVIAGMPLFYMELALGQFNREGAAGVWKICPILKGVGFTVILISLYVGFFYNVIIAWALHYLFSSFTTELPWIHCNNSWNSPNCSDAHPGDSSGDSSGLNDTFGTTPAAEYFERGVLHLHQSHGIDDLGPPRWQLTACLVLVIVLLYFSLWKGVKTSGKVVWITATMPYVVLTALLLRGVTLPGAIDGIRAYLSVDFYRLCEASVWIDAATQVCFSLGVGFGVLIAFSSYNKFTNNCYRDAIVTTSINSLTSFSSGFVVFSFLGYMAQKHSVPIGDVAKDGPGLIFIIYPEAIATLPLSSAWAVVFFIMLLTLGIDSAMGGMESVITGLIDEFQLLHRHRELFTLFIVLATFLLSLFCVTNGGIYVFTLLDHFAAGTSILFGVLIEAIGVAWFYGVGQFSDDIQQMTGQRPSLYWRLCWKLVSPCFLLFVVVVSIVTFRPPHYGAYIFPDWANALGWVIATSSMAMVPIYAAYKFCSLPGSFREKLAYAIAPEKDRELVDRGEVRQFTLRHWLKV
Chain of Tyrosine-protein kinase ZAP-70 (Homo sapiens) (P43403 whole entry): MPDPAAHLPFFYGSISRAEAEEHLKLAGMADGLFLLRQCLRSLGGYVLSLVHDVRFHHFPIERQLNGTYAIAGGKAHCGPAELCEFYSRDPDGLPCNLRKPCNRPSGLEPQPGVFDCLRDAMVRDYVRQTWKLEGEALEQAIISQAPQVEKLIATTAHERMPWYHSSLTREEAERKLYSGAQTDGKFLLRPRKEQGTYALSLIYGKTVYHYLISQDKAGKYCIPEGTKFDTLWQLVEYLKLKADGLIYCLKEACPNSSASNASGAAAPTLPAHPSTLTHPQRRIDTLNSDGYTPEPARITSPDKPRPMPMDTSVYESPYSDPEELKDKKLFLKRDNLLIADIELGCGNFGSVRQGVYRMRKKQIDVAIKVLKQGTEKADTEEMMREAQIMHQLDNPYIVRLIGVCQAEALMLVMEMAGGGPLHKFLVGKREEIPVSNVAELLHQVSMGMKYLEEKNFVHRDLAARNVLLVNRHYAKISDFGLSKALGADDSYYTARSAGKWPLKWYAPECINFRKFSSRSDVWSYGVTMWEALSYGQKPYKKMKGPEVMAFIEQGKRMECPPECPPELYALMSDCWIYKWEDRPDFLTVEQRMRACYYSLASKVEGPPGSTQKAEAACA
Chain of Thyroid hormone receptor beta (Homo sapiens) (P10828 whole entry): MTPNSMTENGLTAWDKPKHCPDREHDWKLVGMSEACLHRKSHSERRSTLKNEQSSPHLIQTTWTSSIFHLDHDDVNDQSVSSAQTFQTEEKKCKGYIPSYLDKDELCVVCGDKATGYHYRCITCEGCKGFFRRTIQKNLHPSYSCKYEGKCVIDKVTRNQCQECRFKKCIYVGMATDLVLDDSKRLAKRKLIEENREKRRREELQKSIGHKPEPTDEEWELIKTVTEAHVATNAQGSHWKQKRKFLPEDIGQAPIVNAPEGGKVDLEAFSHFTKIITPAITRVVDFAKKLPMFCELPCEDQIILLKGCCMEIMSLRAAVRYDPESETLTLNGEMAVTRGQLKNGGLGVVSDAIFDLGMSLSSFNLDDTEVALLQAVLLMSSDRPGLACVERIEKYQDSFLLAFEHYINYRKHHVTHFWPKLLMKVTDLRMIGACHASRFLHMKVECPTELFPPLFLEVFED
Chain of Delta-type opioid receptor (Homo sapiens) (P41143 whole entry): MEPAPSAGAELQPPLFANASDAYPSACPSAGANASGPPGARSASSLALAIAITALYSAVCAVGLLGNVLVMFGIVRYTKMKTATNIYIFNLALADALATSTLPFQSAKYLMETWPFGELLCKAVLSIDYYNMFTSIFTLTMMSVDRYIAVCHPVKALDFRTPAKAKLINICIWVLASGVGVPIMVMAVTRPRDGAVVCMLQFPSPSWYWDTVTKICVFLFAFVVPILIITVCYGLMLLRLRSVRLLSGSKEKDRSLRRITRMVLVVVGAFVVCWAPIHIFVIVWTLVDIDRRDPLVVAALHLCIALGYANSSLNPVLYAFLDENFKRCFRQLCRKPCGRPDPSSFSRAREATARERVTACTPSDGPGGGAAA
Chain of Kappa-type opioid receptor (Homo sapiens) (P41145 whole entry): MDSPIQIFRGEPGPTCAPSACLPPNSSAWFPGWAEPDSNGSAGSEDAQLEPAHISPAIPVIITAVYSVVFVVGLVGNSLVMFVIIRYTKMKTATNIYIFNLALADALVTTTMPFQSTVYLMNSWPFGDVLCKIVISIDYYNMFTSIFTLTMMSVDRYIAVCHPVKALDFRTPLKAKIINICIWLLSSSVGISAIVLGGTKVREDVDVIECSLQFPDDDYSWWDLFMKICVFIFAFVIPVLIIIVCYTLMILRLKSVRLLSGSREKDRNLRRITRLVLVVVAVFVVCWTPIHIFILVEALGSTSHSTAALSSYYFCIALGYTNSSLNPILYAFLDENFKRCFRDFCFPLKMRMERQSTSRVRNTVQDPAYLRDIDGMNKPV
Chain of Type-1 angiotensin II receptor (Homo sapiens) (P30556 whole entry): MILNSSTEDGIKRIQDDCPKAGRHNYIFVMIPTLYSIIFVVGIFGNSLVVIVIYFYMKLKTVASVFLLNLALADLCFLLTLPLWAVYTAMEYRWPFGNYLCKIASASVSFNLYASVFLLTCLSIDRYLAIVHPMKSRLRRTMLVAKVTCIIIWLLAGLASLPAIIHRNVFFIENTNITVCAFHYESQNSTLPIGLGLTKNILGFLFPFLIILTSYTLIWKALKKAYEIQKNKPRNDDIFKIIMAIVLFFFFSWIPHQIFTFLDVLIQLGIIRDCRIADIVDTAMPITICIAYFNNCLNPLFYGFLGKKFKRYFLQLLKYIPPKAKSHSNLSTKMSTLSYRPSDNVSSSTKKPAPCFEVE
Chain of Histamine H3 receptor (Homo sapiens) (Q9Y5N1 whole entry): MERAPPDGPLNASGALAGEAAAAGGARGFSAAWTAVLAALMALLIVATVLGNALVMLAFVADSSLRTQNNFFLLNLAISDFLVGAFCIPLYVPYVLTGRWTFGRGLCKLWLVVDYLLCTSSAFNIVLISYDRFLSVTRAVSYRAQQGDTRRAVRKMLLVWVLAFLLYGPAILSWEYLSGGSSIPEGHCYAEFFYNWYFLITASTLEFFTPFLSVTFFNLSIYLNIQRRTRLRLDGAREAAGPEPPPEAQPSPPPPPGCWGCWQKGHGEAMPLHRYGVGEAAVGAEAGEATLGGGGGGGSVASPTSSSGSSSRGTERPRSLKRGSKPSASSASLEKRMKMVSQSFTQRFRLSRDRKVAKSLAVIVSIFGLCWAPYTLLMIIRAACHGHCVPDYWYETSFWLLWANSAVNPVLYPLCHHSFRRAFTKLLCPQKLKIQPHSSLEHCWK
Chain of Melanocortin receptor 4 (Homo sapiens) (P32245 whole entry): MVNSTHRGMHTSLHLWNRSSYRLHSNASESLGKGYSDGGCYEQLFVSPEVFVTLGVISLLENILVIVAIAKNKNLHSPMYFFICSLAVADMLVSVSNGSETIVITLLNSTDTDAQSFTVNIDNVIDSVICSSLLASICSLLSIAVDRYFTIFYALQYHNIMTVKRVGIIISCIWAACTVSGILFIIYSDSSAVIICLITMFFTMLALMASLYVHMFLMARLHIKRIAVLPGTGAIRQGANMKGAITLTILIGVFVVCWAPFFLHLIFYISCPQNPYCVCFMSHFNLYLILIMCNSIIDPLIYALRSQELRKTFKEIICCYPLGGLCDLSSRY

SMILES: COc1nc2ccc([C@@](O)(c3ccccc3)C3CCN(C(C)=O)CC3)cc2c(Cl)c1Cc1ccc(-n2cccn2)cc1 [JNJ-54119936]
- inhibition [1]: 5%
- inhibition [2]: -5.45%
- inhibition [3]: -6%
- inhibition [4]: 0.46%
- inhibition [5]: 7.18%
- inhibition [6]: 11%
- inhibition ([7]; Compound concentration 0.3 uM): 4.11%
- inhibition ([7]; Compound concentration 1.0 uM): 2.23%
- inhibition ([7]; Compound concentration 3.0 uM): 12.6%
- inhibition ([8]; Compound concentration 1.0 uM): 21%
- inhibition ([8]; Compound concentration 10.0 uM): 44%
- inhibition [9]: 1.13%
- inhibition ([10]; Compound concentration 1.0 uM): 18%
- inhibition ([10]; Compound concentration 10.0 uM): 30%
- inhibition [11]: 2%
- inhibition [12]: -5%
- IC50 [13]: 0.332 µM (active)
- inhibition [14]: 14%
- inhibition [15]: 11%
- inhibition [16]: 65.8%
- Ki ([17]; read-out: Ki): 3.13 µM
- Ki ([17]; read-out: pKi (converted)): 3.02 µM
- inhibition [18]: 5.4%
- inhibition at 3 µM [19]: 31.2% (not active)
- IC50 [20]: 8.4 µM
- IC50 [21]: 6.4 µM
- inhibition ([22]; Compound concentration 1.0 uM): 12%
- inhibition ([22]; Compound concentration 10.0 uM): 21%
- inhibition [23]: 4%
- inhibition [24]: 2%
